The results in this text go back to US4493785A, “Anthraquinone compounds” (Imperial Chemical Industries PLC, priority 1982, dated 1985).

Type in all cases: physicochemical
Series [1] can be described thus: Solubility (wt %) of the dye in liquid crystal material. To be noted: for Solubility: liquid crystal material E 43, 20° C. How it is done:
(§1) (i) Order parameters, solubilities and stabilities reported in Tables I to V were measured in the liquid crystal material, E 43, which is referred to as Host B in UK Specification No. 2081736A and is available from BDH Ltd of Poole, Dorset. Measurements were made at 20° C. unless otherwise indicated.
(§2) (iii) The liquid crystal materials in Table V are:
(§3) ZLI 1695: Available from E. Merck Co, Darmstadt, W. Germany;
(§4) FBCO Ester: Host 12 of UK application No. 8205153.
(§5) (iv) In Table V "S" means order parameter and "Sol" means solubility (wt %) in the appropriate liquid crystal material.

Series [2] can be described thus: Order parameter (S) of the dye in liquid crystal material. To be noted: for Order Parameter (S): liquid crystal material E 43, 20° C. On the procedure:
as §1, §2, §3, §4, §5

A short description of series [3]: Stability to irradiation with 1 kW phosphor-coated mercury vapour lamp. Conditions: E 43, 1 kW mercury vapour lamp, 30° C. On the procedure:
as §1
(ii) Stabilities were measured as the percentage decrease in absorption at the absorption maximum after the indicated period of irradiation with a 1 kW phosphor-coated, mercury vapour lamp at 30° C.

The nature of the next series: Extinction coefficient.
[4] abbreviates: liquid crystal material FBCO Ester, 20° C.
[5] abbreviates: liquid crystal material ZLI 1132, 20° C.
Setting [6] is: liquid crystal material ZLI 1695, 20° C.

The compound `CC(CCCc1cc(N)c2c(c1O)C(=O)c1c(O)c(CCCC(C)CC(C)(C)C)cc(N)c1C2=O)CC(C)(C)C` (centres unmarked) [--C2 H4 CH(CH3)CH2 C(CH3)3, reference compound] showed a Solubility in series [1] of 1.6 wt %. The “Order Parameter (S)” value in series [2] stood at 0.71.
With `CCC(CC)Cc1cc(N)c2c(c1O)C(=O)c1c(O)c(CC(CC)CC)cc(N)c1C2=O` [--CH(C2 H5)2], the “Order Parameter (S)” value in series [2] worked out at 0.66.
Consider `CCC(C)Cc1cc(N)c2c(c1O)C(=O)c1c(O)c(CC(C)CC)cc(N)c1C2=O` (centres unmarked) [--CH(CH3)CH2 CH3], for which the “Order Parameter (S)” value in series [2] was determined as 0.68.
Regarding `CCCCCc1cc(N)c2c(c1O)C(=O)c1c(O)c(CCCCC)cc(N)c1C2=O` [Example 1c, 2,7-Di-n-pentyl-4,5-diamino-chrysazin], the “Stability (percentage decrease in absorption at the absorption maximum)” value stood at 97% in series [3] (100 hr irradiation) and 73% in series [3] (2000 hr irradiation). For the same compound, in series [1], the Solubility amounted to 8.0 wt %. Moreover, the entries for the “Sol (solubility)” value in series [1] (setting [4]), in series [1] (setting [5]) and in series [1] (setting [6]) were 3 wt %, 10.0 wt % and 6.5 wt %, respectively. Also, the “Order Parameter (S)” value in series [2] is 0.77. The results for the “S (order parameter)” value in series [2] (setting [4]), in series [2] (setting [5]) and in series [2] (setting [6]) were 0.69, 0.77 and 0.79, respectively.
On to `CCCCCCCc1cc(N)c2c(c1O)C(=O)c1c(O)c(CCCCCCC)cc(N)c1C2=O` [Example 2c, 2,7-Di-n-heptyl-4,5-diaminochrysazin], for which the results for the “Stability (percentage decrease in absorption at the absorption maximum)” value in series [3] (400 hr irradiation) and in series [3] (2000 hr irradiation) were 92% and 87%, respectively. Further, the Solubility in series [1] is reported as 5.5 wt %. For the same compound, the “Sol (solubility)” value is on record as 3 wt % in series [1] (setting [4]) and 7.0 wt % in series [1] (setting [5]). For the same compound, the “Order Parameter (S)” value in series [2] stood at 0.78. Further, the “S (order parameter)” value was found to be 0.70 in series [2] (setting [4]), 0.78 in series [2] (setting [5]) and 0.80 in series [2] (setting [6]).
In the case of `CCCCCCc1cc(N)c2c(c1O)C(=O)c1c(O)c(CCCCCC)cc(N)c1C2=O` [Example 3, 2,7-Di-n-hexyl-4,5-diaminochrysazin], the Solubility in series [1] is 4.3 wt %. In addition, the “Order Parameter (S)” value in series [2] is given as 0.76.
The matching figures for `CCCCCCCCc1cc(N)c2c(c1O)C(=O)c1c(O)c(CCCCCCCC)cc(N)c1C2=O` [Example 4, 2,7-di-n-octyl-4,5-diaminochrysazin]: 13.0 wt % and 0.73.
On to `CCCCCCCc1cc(N)c2c(c1O)C(=O)c1c(O)c(CCCCCCC)cc(NC)c1C2=O` [Example 5b, 2,7-di-n-heptyl-4-amino-5-methylaminochrysazin], for which the Solubility in series [1] was determined as 0.5 wt %. In addition, the extinction coefficient in “Extinction coefficient” (at 675 nm) was 19,522. Moreover, the “Order Parameter (S)” value in series [2] turned out to be 0.68.
`CCCCCCCc1cc(NC)c2c(c1O)C(=O)c1c(O)c(CCCCCCC)cc(NC)c1C2=O` [Example 5c, 2,7-di-n-heptyl-4,5-di(methylamino)chrysazin] displayed a Solubility in series [1] of 0.5 wt %. In addition, the extinction coefficient in the series “Extinction coefficient” (at 575 nm) is 22,100. In series [2], the “Order Parameter (S)” value is 0.67.
In series [1], `CCCCCc1cc(N)c2c(c1O)C(=O)c1c(O)c(CCCCC)cc(NC)c1C2=O` [Example 6b] showed a Solubility of 3.3 wt %. In the series “Extinction coefficient” (at 675 nm), the extinction coefficient was 23,785. The “Order Parameter (S)” value in series [2] is listed as 0.72.
`CCCCCc1cc(NC)c2c(c1O)C(=O)c1c(O)c(CCCCC)cc(NC)c1C2=O` [Example 6c] gave a Solubility in series [1] of 0.9 wt %. The “Order Parameter (S)” value in series [2] is given as 0.66.
Regarding `CNc1cc(CC(C)C)c(O)c2c1C(=O)c1c(NC)cc(CC(C)C)c(O)c1C2=O` [iso-propyl, Comparative Dye, TABLE III], the “Order Parameter (S)” value in series [2] is recorded as 0.54.
`CNc1cc(CC(C)C)c(O)c2c1C(=O)c1c(N)cc(CC(C)C)c(O)c1C2=O` [iso-propyl, Comparative Dye, TABLE II]: the “Order Parameter (S)” value in series [2] came to 0.63.
Regarding `CCCCCCCc1cc(N)c2c(c1O)C(=O)c1c(N)cc(CCCCCCC)c(O)c1C2=O` [n-hexyl, Comparative Dyes (Formula B), reference compound], in series [1], the Solubility was below 0.01 wt %.
